Assay results: patent US9532975B2, “Use of levo-oxiracetam and oxiracetam in preparation of medicines for preventing or treating coma” (CHONGQING RUNZE PHARMACEUTICAL COMPANY LIMITED., priority 2011, dated 2017)

How the values were obtained:
in vivo = assay: in vivo; parameters: species or system Beagle dogs; conditions: dog, 50 mg/kg
Method: The study of comparing the pharmacokinetic of the racemic oxiracetam and L-oxiracetam determines the dose orally and intravenously to Beagle dogs for 50 mg/kg.
Take six adult Beagle dogs, the numbers of female and male were equal, which were weighted 10.0±0.5 kg and randomly divided into three groups, and each group were two with same numbers of the male and female. Latin square crossover method was used (see Table 1). Beagle dogs were administered orally and intravenously at a dose of 50 mg/kg. L-oxiracetam samples with 99.3% (optically pure) of purity were used. Each route of administration was performed every week. Animals orally administered were fasted for 12 hours […] continued fasting three hours after administration. Blank blood was taken prior to administration. Blood sample were taken 1 mL from forelimbs vein into heparinized tubes in 0.083, 0.25, 0.5, 0.75, 1.0, 1.5, 2.0, 4.0, 6.0, 8.0, 12.0 and 24.0 hours after oral administration, or taken in 0.083, 0.25, 0.5, 0.75, 1.0, 1.5, 2.0, 4.0, 6.0, 8.0, 12.0 and 24.0 hours after intravenous administration, and centrifuged to obtain plasma. The concentrations of drugs in plasma were determined by LC-MS-MS method. The results in the table below 2-7.

[1] = tested on: alcoholic coma mouse model; assay: Alcohol-induced coma in mice, sleep time (duration of loss of righting reflex); type: in vivo; conditions: for wake-promoting effect on alcoholism-induced coma (in words): doses of Table 8
Method: • 1. Drugs and reagents: L-Oxiracetam, D-Oxiracetam and racemic oxiracetam; naloxone, purchased from Chongqing Yaoyou Pharmaceutical Co., Ltd.; anhydrous ethanol, purchased from Shanghai Chemical Reagent Co., Ltd. Physiological saline is commercially available. Each solution was freshly prepared. • 2. Preparation of ethanol solution: anhydrous ethanol was diluted with saline to produce 30% ethanol solution, freshly prepared. • 3. Experimental animals: Male mice weighing 18-22 grams were provided by the special committee, Sichuan experimental animal farms (License: SCXK (Chuan) 2008-14). Animal experiments facilities continue to maintain barriers environmental standards. Control of key environmental indicators: the temperature of 20.0-25.0° C., relative humidity of 40-70%. 10-20 air changes/hour, lighting:dark=14 h:10 h. Animals were housed in standard boxes, each box had 5. (B) Experimental Methods
1. Preparation of alcoholic coma mouse model: With reference to the literature (M. E L Yacoubi, C. Ledent, M. parmentier, et al Caffeine reduces hypnotic effects of alcohol through adenosine A2A receptor blockade [J] Neuropharmacology, 2003, 45(7):977-985) modeled the process of 30% ethanol solution intraperitoneally (0.2 ml/10 g).
2. Method of determination of states of consciousness of mouse discriminating: According to the literature (Jeffrey R. Stephens, Rene H. Levy. Effects of valproate and citrulline on ammonium-Induced encephalopathy [J] Epilepsia, 1994,35 (1):164-171) performed the determination of states of consciousness: level 1, reduced activity in the cage; level 2, limb ataxia associated with reduced activity; level 3, scrolled when placed in the bottom of the back of the cage (righting reflex), but could not stand; level 4, back into the cage end position cannot be corrected, but the damage manifested as physical stimulation retraction; level 5, righting reflex (Loss of Righting Reflex, LORR) and the lack of response to noxious stimuli. Level 4, 5, considered animal in a coma.
The 150 animals were randomly divided into 10 groups: model control group (saline only); […]; dextral Oxiracetam up two groups, respectively: 90,180 mg/kg group; L oxiracetam set up three groups, namely: 30 mg/kg, 90 mg/kg and 180 mg/kg group; naloxone group, a dose of 1.5mg/kg. After each group were successfully prepared animal models, random tables grouped righting reflex one minute after tail vein injection. The mice were observed duration of righting reflex, that sleep time. Statistical results: the experimental data with x±sd, said comparison between the groups were analyzed using ANOVA and q test, test level: α=0.05.

[2] = tested on: ketamine-induced coma in mice; assay: Ketamine-induced coma in mice, duration of loss of righting reflex; type: in vivo, Kunming mice; conditions: for Time of Sleep (The duration of reflex action, min): ketamine 120 mg/kg i.p. induced coma
Method: • 1.1 Experimental animal and grouped 150 Kunming mice, male, weight (25.3±1.9) g, provided by the special committee of Sichuan experimental animal farms. (License: SCXK (Chuan) 2008-14). Animal experiments facilities continue to maintain barriers environmental standards. Control of key environmental indicators: the temperature of 20.0-25.0° C., relative humidity of 40-70%. 10-20 air changes/hour, lighting:dark=14 h:10 h. Animals were housed in standard boxes, each box 5.
Mice after three consecutive supine standing for 5 s can not be restored righting reflex recovery after three consecutive sit-stand for the righting reflex. • 1.4 Statistical analysis of data with x±sd was expressed using statistical software SPSS 12.0 for data analysis. The groups were compared using ANOVA, test level: A=0 05. 2. Results

[3] = tested on: traumatic brain coma in rats; assay: Traumatic brain coma in rats (Feeney method), coma level score; type: in vivo, SD rats; conditions: for Remark: animals that survived: 10 animals, 8 h observation, cell wraps: All / survived
[4] = compared with the racemate; cited from earlier work
[5] = alcohol-induced coma, 30 mg/kg tail vein injection
[6] = alcohol-induced coma, 180 mg/kg tail vein injection
[7] = traumatic brain coma, 125 mg/kg, levels 1-6 (5 and 6 = coma)
[8] = traumatic brain coma, 1 mg/kg, levels 1-6 (5 and 6 = coma)
[9] = both sexes, Beagle, iv, Drug concentrations in plasma

## NC(=O)CN1C[C@@H](O)CC1=O [L-oxiracetam, (S)-4-hydroxy-2-oxo-pyrrolidineacetamide]
In vivo
  absolute bioavailability estimated through AUC0−∞: 65.76±9.12%
In vivo; iv
  AUC(0-inf): 243 ± 37.8 µg·h/mL
[1]; alcohol-induced coma
  effect of awaking relative to racemic oxiracetam: ~2 times
[1]; [5]
  Time of Sleep (The duration of reflex action, min): 85.8 ± 10.6 min
[1]; alcohol-induced coma, 75 mg/kg tail vein injection
  Time of Sleep (The duration of reflex action, min): 63.5 ± 9.8 min
[1]; [6]
  Time of Sleep (The duration of reflex action, min): 48.5 ± 9.1 min
[1]
  wake-promoting effect on alcoholism-induced coma (in words): obvious
[2]; dose range 30-180 mg/kg
  awaking effect on ketamine-induced coma (in words): significant awaking effect
[2]; 30 mg/kg
  Time of Sleep (The duration of reflex action, min): 19.6 ± 5.6 min
[2]; 75 mg/kg
  Time of Sleep (The duration of reflex action, min): 15.2 ± 4.9 min
[2]; 180 mg/kg
  Time of Sleep (The duration of reflex action, min): 13.8 ± 3.8 min
[3]; 125 mg/kg, after 1 hour
  wake-promoting effect on traumatic coma (in words): significant improvement in awareness
[3]; traumatic brain coma, 125 mg/kg, 125 mg/kg
  Remark: animals that survived: All
[3]; traumatic brain coma, 125 mg/kg, listed as left oxiracetam, 125 mg/kg
  Remark: animals that survived: no occurrence of an animal died
[3]; [7]
  coma level score, post-traumatic observation point 1 h: 5.1 ± 0.88
  coma level score, post-traumatic observation point 2 h: 3.8 ± 0.78
  coma level score, post-traumatic observation point 4 h: 3.0 ± 0.82
  coma level score, post-traumatic observation point 8 h: 2.0 ± 0.67
[3]; traumatic brain coma, 125 mg/kg, levels 1-6 (5 and 6 = coma), listed as left oxiracetam
  coma level score, post-traumatic observation point 1 h: 5.1
[4]
  solubility (in words): significantly better than the racemate

## C=CCN1CC[C@]23c4c5ccc(O)c4O[C@H]2C(=O)CC[C@@]3(O)[C@H]1C5 [Naloxone]
[1]; alcohol-induced coma, 1.5 mg/kg tail vein injection
  Time of Sleep (The duration of reflex action, min): 60.5 ± 7.8 min
[2]; 1.5 mg/kg
  Time of Sleep (The duration of reflex action, min): 13.5 ± 4.2 min
[2]; positive reference drug 1.5 mg/kg
  awaking effect on ketamine-induced coma (in words): significant effect
[3]; 1 mg/kg, positive drug
  wake-promoting effect on traumatic coma (in words): good wake-promoting effect
[3]; traumatic brain coma, 1 mg/kg
  Remark: animals that survived: All
[3]; [8]
  coma level score, post-traumatic observation point 1 h: 4.4 ± 0.96
  coma level score, post-traumatic observation point 2 h: 3.6 ± 0.84
  coma level score, post-traumatic observation point 8 h: 1.9 ± 0.88

## NC(=O)CN1CC(O)CC1=O (racemic) [oxiracetam]
In vivo; [9]
  concentration at 1 h: 30800 ng/mL
  concentration at 1.5 h: 38800 ng/mL
  concentration at 2 h: 35300 ng/mL
  concentration at 4 h: 13000 ng/mL
  concentration at 6 h: 9350 ng/mL
[1]; alcohol-induced coma, 60 mg/kg tail vein injection
  Time of Sleep (The duration of reflex action, min): 96.8 ± 12.7 min
[1]; alcohol-induced coma, 150 mg/kg tail vein injection
  Time of Sleep (The duration of reflex action, min): 86.1 ± 9.4 min
[1]; alcohol-induced coma, 360 mg/kg tail vein injection
  Time of Sleep (The duration of reflex action, min): 65.1 ± 10.2 min
[1]
  wake-promoting effect on alcoholism-induced coma (in words): certain awaking effect
[2]; dose range 150-360 mg/kg
  awaking effect on ketamine-induced coma (in words): also had such effect
[2]; 60 mg/kg
  Time of Sleep (The duration of reflex action, min): 21.3 ± 6.7 min
[2]; 150 mg/kg
  Time of Sleep (The duration of reflex action, min): 15.3 ± 6.4 min
[2]; 360 mg/kg
  Time of Sleep (The duration of reflex action, min): 14.2 ± 6.2 min

## NC(=O)CN1C[C@H](O)CC1=O [D-Oxiracetam]
[1]; [5]
  Time of Sleep (The duration of reflex action, min): 105.3 ± 15.8 min
[1]; [6]
  Time of Sleep (The duration of reflex action, min): 98.8 ± 11.6 min
[1]
  wake-promoting effect on alcoholism-induced coma (in words): basically had no effect
[2]; dose range 30-180 mg/kg
  awaking effect on ketamine-induced coma (in words): no effect
[2]; 30 mg/kg
  Time of Sleep (The duration of reflex action, min): 25.6 ± 8.9 min
[2]; 180 mg/kg
  Time of Sleep (The duration of reflex action, min): 22.8 ± 6.5 min
